This is an account of results in PubChem BioAssay (NCI).

Some test systems named below: A498 renal; BT-549 breast; HOP-62 NSCLC; M14 melanoma; MALME-3M melanoma; NCI-H460 lung; OVCAR-8 ovarian; SF-295 CNS; SK-MEL-28 melanoma; UO-31 renal.
Assay in all cases: NCI anticancer screen, dose series, 48 h

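In this assay, cells in 96-well plates receive the compound at five concentrations for 48 hours. Endpoints are linearly interpolated between the surrounding concentrations. TGI: total growth inhibition.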

For the compound `O=[N+]([O-])/C(Cl)=C(\NCCO)C(Cl)=C(Cl)Cl`, the TGI was > 100 µM in the assay on A498 renal; > 100 µM in the assay with BT-549 breast; > 100 µM with HOP-62 NSCLC; 77.5 µM in the assay on M14 melanoma; 65 µM in the assay on MALME-3M melanoma; > 100 µM with NCI-H460 lung. The TGI with OVCAR-8 ovarian is > 92.5 µM; in the assay with SF-295 CNS, > 100 µM; in the assay on SK-MEL-28 melanoma, > 100 µM; with UO-31 renal, > 86.4 µM.

Consider `CCOC(=O)C1=C(N2CCCC2)C(=O)C(C(=O)OCC)C1` (configuration not stated), for which the TGI in the assay on A498 renal, in the assay with BT-549 breast, with HOP-62 NSCLC, with M14 melanoma, in the assay on MALME-3M melanoma and with NCI-H460 lung was > 100 µM each time. The TGI with OVCAR-8 ovarian, in the assay on SF-295 CNS, with SK-MEL-28 melanoma and in the assay on UO-31 renal was > 100 µM throughout.

Take `Cc1cccc(NC(=S)Nc2cccc(Cl)c2)n1`: the TGI in the assay with A498 renal, with BT-549 breast, with HOP-62 NSCLC, in the assay on M14 melanoma, with MALME-3M melanoma and in the assay on NCI-H460 lung was > 100 µM each time. In addition, the TGI in the assay with OVCAR-8 ovarian was > 100 µM; in the assay on SF-295 CNS, > 78.4 µM; with SK-MEL-28 melanoma, > 100 µM; in the assay on UO-31 renal, > 100 µM.

As for `CC1=NN(c2ccccc2)C(=O)/C1=C\c1c(C)[nH]n(-c2ccccc2)c1=O`, the TGI in the assay with A498 renal, in the assay on BT-549 breast, with HOP-62 NSCLC, in the assay on M14 melanoma, in the assay with MALME-3M melanoma and in the assay on NCI-H460 lung was > 100 µM throughout. In addition, the TGI in the assay with OVCAR-8 ovarian, in the assay on SF-295 CNS, in the assay on SK-MEL-28 melanoma and with UO-31 renal was > 100 µM each time.

With `COc1ccc(NCn2nc(CCCCCCCCc3nn(CNc4ccc(OC)cc4)c(=S)o3)oc2=S)cc1`, the TGI in the assay with A498 renal, in the assay on BT-549 breast, with HOP-62 NSCLC, with M14 melanoma, in the assay on MALME-3M melanoma and in the assay with NCI-H460 lung was > 100 µM each time. Moreover, the TGI with SF-295 CNS, in the assay with SK-MEL-28 melanoma and with UO-31 renal was > 100 µM throughout.

As for `CC(C)(C)N=C1C(=O)C2(C)CCC1C2(C)C` (configuration not stated), the TGI in the assay with A498 renal is 41.2 µM; in the assay on BT-549 breast it was > 100 µM; in the assay on HOP-62 NSCLC it was > 100 µM; in the assay with M14 melanoma, > 100 µM; with MALME-3M melanoma it was > 100 µM; in the assay on NCI-H460 lung, > 100 µM. The TGI in the assay on OVCAR-8 ovarian, in the assay on SF-295 CNS, with SK-MEL-28 melanoma and with UO-31 renal was > 100 µM each time.

For the compound `Oc1c(NCn2nc(CCCCCCCCc3nn(CNc4ccc5ccccc5c4O)c(=S)o3)oc2=S)ccc2ccccc12`, the TGI with A498 renal, with BT-549 breast, in the assay with HOP-62 NSCLC, in the assay with M14 melanoma, in the assay with MALME-3M melanoma and in the assay with NCI-H460 lung was > 100 µM each time. For the same compound, the TGI with SF-295 CNS, in the assay with SK-MEL-28 melanoma and with UO-31 renal was > 100 µM in each case.

As to `Cc1oc(N)c(S(=O)(=O)/C(C#N)=C/c2ccccc2[N+](=O)[O-])c1C`, the TGI in the assay with A498 renal is > 100 µM; in the assay with BT-549 breast, 48.2 µM; in the assay on HOP-62 NSCLC, > 100 µM; with M14 melanoma, 41.4 µM; in the assay with MALME-3M melanoma, > 100 µM; with NCI-H460 lung, > 100 µM. The figures for the TGI with SF-295 CNS, in the assay with SK-MEL-28 melanoma and in the assay with UO-31 renal were > 100 µM, 64.2 µM and 30.6 µM, respectively.

For the compound `CC1(C)Cc2ccccc2C(C)(Cl)C(=O)N1` (configuration not stated), the TGI with A498 renal, in the assay on BT-549 breast, in the assay on HOP-62 NSCLC, with M14 melanoma, in the assay with MALME-3M melanoma and in the assay with NCI-H460 lung was > 10 µM throughout. Also, the TGI with OVCAR-8 ovarian, with SF-295 CNS, in the assay on SK-MEL-28 melanoma and with UO-31 renal was > 10 µM in each case.

Take `O=C1CC(c2cccc([N+](=O)[O-])c2)C2(C(=O)NC(=S)NC2=O)C(c2cccc([N+](=O)[O-])c2)C1` (configuration not stated): the TGI in the assay on A498 renal is > 100 µM; in the assay on BT-549 breast it was 81.4 µM; in the assay with HOP-62 NSCLC it was > 100 µM; in the assay with M14 melanoma, 58.5 µM; with MALME-3M melanoma, 53.2 µM; with NCI-H460 lung, > 100 µM. Besides, the TGI with OVCAR-8 ovarian is 43.6 µM; in the assay with SF-295 CNS it was > 100 µM; in the assay on SK-MEL-28 melanoma it was > 100 µM; in the assay on UO-31 renal, > 100 µM.

As to `C=CCN1C(=O)C[C@H](Cc2ccccc2)NC(=O)C[C@H](Cc2ccccc2)N(CC=C)C(=O)C[C@H](Cc2ccccc2)NC(=O)C[C@@H]1Cc1ccccc1`, the TGI with A498 renal was > 100 µM; in the assay with BT-549 breast it was > 100 µM; with HOP-62 NSCLC, > 100 µM; in the assay on M14 melanoma, > 100 µM; in the assay on MALME-3M melanoma, 50.6 µM; in the assay with NCI-H460 lung it was > 100 µM. In addition, the TGI in the assay on OVCAR-8 ovarian, in the assay with SF-295 CNS, in the assay with SK-MEL-28 melanoma and with UO-31 renal was > 100 µM each time.

As for `CC(Cl)(CCC(Cl)C(C)(C)Cl)C(=O)CBr` (configuration not stated), the TGI turned out to be 31.1 µM in the assay with A498 renal; 27.3 µM with BT-549 breast; 32.5 µM in the assay with HOP-62 NSCLC; 21.8 µM in the assay with M14 melanoma; 24.8 µM with MALME-3M melanoma; 32.3 µM with NCI-H460 lung. Further, the TGI in the assay with OVCAR-8 ovarian worked out at 23.7 µM; in the assay on SF-295 CNS, 55.4 µM; with SK-MEL-28 melanoma, 31.6 µM; in the assay on UO-31 renal, 22 µM.

As to `COc1ccc(N=C(C)C(C)=Nc2ccc(OC)cc2)cc1`, the TGI with A498 renal, in the assay on BT-549 breast, in the assay with HOP-62 NSCLC, in the assay with M14 melanoma, in the assay with MALME-3M melanoma and in the assay with NCI-H460 lung was > 100 µM throughout. The TGI with OVCAR-8 ovarian, with SF-295 CNS, with SK-MEL-28 melanoma and in the assay on UO-31 renal was > 100 µM in each case.

Take `COC(=O)[C@@H]1C=CCN1S(=O)(=O)c1ccc(C)cc1`: the TGI in the assay on A498 renal, in the assay on BT-549 breast, with HOP-62 NSCLC, in the assay on M14 melanoma, with MALME-3M melanoma and in the assay on NCI-H460 lung was > 100 µM throughout. For the same compound, the TGI in the assay on OVCAR-8 ovarian, with SF-295 CNS, with SK-MEL-28 melanoma and in the assay on UO-31 renal was > 100 µM each time.
